The values that follow come from ChEMBL document CHEMBL5241090, “A comprehensive overview of β-carbolines and its derivatives as anticancer agents” (Eur J Med Chem, 2021).

In brackets after ≈: the same amount, converted by molar mass.

Common to all, as to format: functional, cell-based
Assay [1] relates to CNE-2. Put plainly: Cytotoxicity against human CNE-2 cells incubated for 72 hrs by MTT assay. The note with it: CNE-2, 72 h. (In general: Tetrazolium dyes change colour on reduction, which living cells bring about.)
Assay [2] deals with HONE1 cell line. Put plainly: Cytotoxicity against human HONE1 cell line incubated for 72 hrs by MTT assay. The conditions noted are these: HONE1, 72 h.
The subject of assay [3] is CNE. Put plainly: Cytotoxicity against human CNE-1 cells incubated for 72 hrs by MTT assay.
Assay [4] concerns HepG2. The experiment in a line: Cytotoxicity against human HepG2 cells incubated for 72 hrs by MTT assay. The note with it: HepG2, 72 h.
A short description of assay [5]: Cytotoxicity against human QGY-7701 cells incubated for 72 hrs by MTT assay. The note with it: QGY7701, 72 h.
Assay [6] concerns SUNE1. Put plainly: Cytotoxicity against human SUNE1 cells incubated for 72 hrs by MTT assay. The conditions noted are these: SUNE1, 72 h.
Assay [7] has as its system MG-63. Put plainly: Cytotoxicity against human MG-63 cells.
Assay [8] has as its system HL-60. Put plainly: Cytotoxicity against human HL-60 cells. The conditions noted are these: Homo sapiens, HL-60; read-out: IC50.
Assay [9] relates to PC-3. Put plainly: Cytotoxicity against human PC-3 cells.
Assay [10] relates to SGC-7901. Put plainly: Cytotoxicity against human SGC-7901 cells.
Assay [11] relates to MCF7. The experiment in a line: Cytotoxicity against human MCF7 cells measured after 24 hrs by MTT assay. The note with it: MCF7, 24 h.
In assay [12] the test system is A2780. The experiment in a line: Cytotoxicity against human A2780 cells measured after 24 hrs by MTT assay. The note with it: A2780, 24 h.
For assay [13], the system named is A549. Put plainly: Cytotoxicity against human A549 cells measured after 24 hrs by MTT assay. The note with it: A549, 24 h.
Assay [14] has as its system COLO 205. Put plainly: Cytotoxicity against human COLO 205 cells measured after 24 hrs by MTT assay. The note with it: COLO 205, 24 h.
Assay [15] is described as follows: Cytotoxicity against mouse J558 cells assessed as growth inhibition measured upto 48 hrs by CCK-8 assay. The note with it: J558, 48 h.
Assay [16] has as its system Ramos. The experiment in a line: Cytotoxicity against human Ramos RA.1 cells assessed as growth inhibition measured upto 48 hrs by CCK-8 assay.
Assay [17] has as its system Bel7402/5-FU. The experiment in a line: Cytotoxicity against human BEL-7402/5-FU cells measured after 72 hrs by MTT assay.
In assay [18] the test system is SMMC-7721. The experiment in a line: Cytotoxicity against human SMMC-7721 cells measured after 72 hrs by MTT assay. The conditions noted are these: SMMC-7721, 72 h.
The test system of assay [19] is Huh-7. Put plainly: Cytotoxicity against human Huh-7 cells measured after 72 hrs by MTT assay. The conditions noted are these: Huh-7, 72 h.
Assay [20] concerns HCT-116. Put plainly: Cytotoxicity against human HCT-116 cells measured after 72 hrs by MTT assay. The note with it: HCT-116, 72 h.
The subject of assay [21] is Bel-7402. Put plainly: Cytotoxicity against human Bel-7402 cells measured after 72 hrs by MTT assay. The note with it: Bel-7402, 72 h.
Assay [22] deals with COLO 205. Put plainly: Antiproliferative activity against human COLO 205 cells.
The subject of assay [23] is A549. The experiment in a line: Cytotoxicity against human A549 cells by MTT assay.
The test system of assay [24] is PC-3. Put plainly: Antiproliferative activity against human PC-3 cells.
The test system of assay [25] is T98G. Put plainly: Antiproliferative activity against human T98G cells incubated for 72 hrs by MTT assay.
The subject of assay [26] is A549. The experiment in a line: Antiproliferative activity against human A549 cells incubated for 72 hrs by MTT assay. The note with it: A549, 72 h.
The subject of assay [27] is Hs 683. Put plainly: Antiproliferative activity against human Hs 683 cells incubated for 72 hrs by MTT assay. The conditions noted are these: Hs 683, 72 h.
Assay [28] deals with MDA-MB-231. The experiment in a line: Antiproliferative activity against human MDA-MB-231 cells incubated for 72 hrs by MTT assay. The note with it: MDA-MB-231, 72 h.
For assay [29], the system named is PANC-1. The experiment in a line: Antiproliferative activity against human PANC-1 cells incubated for 72 hrs by MTT assay. The conditions noted are these: PANC-1, 72 h.
The test system of assay [30] is HCC1395. The experiment in a line: Antiproliferative activity against human HCC1395 cells incubated for 48 hrs by MTT assay. The note with it: HCC1395, 48 h.
In assay [31] the test system is Keratinocyte. Put plainly: Cytotoxicity against guinea pig ear keratinocytes using [3H]thymidine by liquid scintillation counting analysis. The note with it: Cavia porcellus.
Assay [32] deals with CCRF-CEM. The experiment in a line: Cytotoxicity against human drug sensitive CCRF-CEM cells assessed as fluorescence incubated for 72 hrs by resazurin reduction assay.
The subject of assay [33] is DU-145. Put plainly: Antiproliferative activity against human DU-145 cells incubated for 48 hrs by MTT assay. The note with it: DU-145, 48 h.
Assay [34] relates to ADR5000 cell line. Put plainly: Cytotoxicity against human multidrug-resistant CEM/ADR5000 cells assessed as fluorescence incubated for 72 hrs by resazurin reduction assay. The conditions noted are these: ADR5000, 72 h. A general note: Resazurin is reduced to fluorescent resorufin, in cell work by metabolically active cells.
Assay [35] deals with MCF7. The experiment in a line: Cytotoxicity against human MCF7 cells.
Assay [36] relates to OVCAR-3. Put plainly: Cytotoxicity against human OVCAR-3 cells.
Assay [37] has as its system Malme-3M. The experiment in a line: Cytotoxicity against human Malme-3M cells.
The test system of assay [38] is A549. Put plainly: Cytotoxicity against human A549 cells.

As a reminder, the IC50 is the point on the concentration scale where inhibition reaches its midpoint. For `O=C(c1nccc2c1[nH]c1ccccc12)[C@@H](O)CCCO`, the IC50 in assay [1] was 20600 nM; in [2] it was 20100 nM; in assay [3], 16300 nM; in assay [4], 50800 nM; in assay [5] it was 29000 nM; in assay [6], 45300 nM.

In assay [7], `O=C(c1cc2c([nH]c3ccccc32)c(-c2ccccc2)n1)N1CCN(S(=O)(=O)c2ccc(Cl)cc2)CC1` registered an IC50 of 2800 nM.

For `COC(=O)NCCc1c(C(=O)C[C@]2(C)c3[nH]c4cc(OC)ccc4c3CCN2C(=O)OC)[nH]c2cc(OC)ccc12`, the IC50 was found to be 3810 nM in [8], 11500 nM in [9] and 15200 nM in [10].

The compound `O=C(c1cc2c([nH]c3ccccc32)c(-c2ccccc2)n1)N1CCN(S(=O)(=O)c2ccccc2)CC1` registered an IC50 in assay [7] of 590 nM.

Take `COc1cc2nc(-c3nc(-c4nccc5c4[nH]c4ccccc45)cs3)[nH]c2cc1OC`: the IC50 in [11] was 92 nM; in [12] it was 1230 nM; in assay [13], 720 nM; in assay [14], 340 nM.

As for `CCCCn1c2ccccc2c2cc[n+](Cc3ccc(F)cc3)c(-c3ccccc3Cl)c21`, the IC50 in assay [15] was found to be 8020 nM; in assay [16] it was 9080 nM.

In the case of `CN(C)c1ccc(-c2nc(C(=O)NCc3ccc(/C=C/C(=O)NO)cc3)cc3c2[nH]c2ccccc23)cc1`, the IC50 in assay [17], in assay [18], in assay [19], in assay [20] and in assay [21] was 1840 nM each time.

`CC(C)(C)OC(=O)n1cc(C/C=C(\c2cn(C(=O)OC(C)(C)C)c3ccccc23)C2NCCc3c2[nH]c2ccccc32)c2ccccc21` (centres undefined) came in with an IC50 in [22] of 2700 nM.

In turn, `C[C@@H](O)CCCCC(=O)c1nccc2c1[nH]c1ccccc12` showed an IC50 in assay [23] of 1700 nM.

On to `COc1c[n+](Cc2ccccc2)c2ccc(=O)n3c4ccccc4c1c23`, for which 8000 nM corresponded to half-maximal inhibition in assay [24] (IC50).

Consider `CCCn1c2cc(OCCC(C)C)ccc2c2cc[n+](Cc3ccccn3)c(C)c21`, for which the IC50 in assay [25], in [26], in assay [27], in [28] and in assay [29] was 200 nM each time.

For the compound `O=c1ccc2nccc3c4ccccc4n1c23` [CANTHIN-6-ONE], the IC50 in [30] was 8.12 µg/mL (≈ 36.9 µM); in assay [31] it was 1.11 µg/mL (≈ 5.04 µM); in [32], 15800 nM; in assay [33] it was 9.43 µg/mL (≈ 42.8 µM); in [34], 10500 nM.

For `O=C1c2ccccc2-[n+]2ccc3c([nH]c4ccccc43)c21` [FASCAPLYSIN], the IC50 was found to be 0.14 µg/mL in assay [35], 0.16 µg/mL in assay [36], 0.03 µg/mL in assay [37] and 0.38 µg/mL in assay [38].
